The target of the experiment is Bcl-2 (Homo sapiens (Human), UniProt P10415). Nature of the experiment: Time Resolved-Fluorescence Resonance Energy Transfer (TR-FRET) Bcl-2 binding assay with F-Bak peptide probe. The following applies: GST-Bcl-2 1 nM, F-Bak peptide probe 100 nM, Tb-anti-GST antibody 1 nM; Ki by Wang's equation. On the procedure:
Determination of the utility of compounds having Formula (I) as binders to and inhibitors of anti-apoptotic Bcl-2 proteins was performed using the Time Resolved-Fluorescence Resonance Energy Transfer (TR-FRET) Assay. Tb-anti-GST antibody was purchased from Invitrogen (Catalog No. PV4216).
Representative compounds were serially diluted in dimethyl sulfoxide (DMSO) starting at 50 μM (2× starting concentration; 10% DMSO) and 10 μL were transferred into a 384-well plate. The samples are then mixed on a shaker for 1 minute and incubated for an additional 3 hours at room temperature. For each assay, the probe/antibody and protein/probe/antibody were included on each assay plate as negative and positive controls, respectively. Fluorescence was measured on the ENVISION plate reader (Perkin Elmer) using a 340/35 nm excitation filter and 520/525 (F-Bak peptide) and 495/510 nm (Tb-labeled […] antibody) emission filters Inhibition constants (Ki) are shown in TABLE 2 below and were determined using Wang's equation (Wang Z.-X. An Exact Mathematical Expression For Describing Competitive Binding Of Two Different Ligands To A Protein Molecule. FEBS Lett. 1995, 360:111-4).
The inhibition constant (Ki) is the dissociation constant of an enzyme-inhibitor complex or a protein/small molecule complex, wherein the small molecule is inhibiting binding of one protein to another protein. So a large K, value indicates a low binding affinity and a small Ki value indicates a high binding affinity.
The compounds are therefore expected to have utility in treatment of diseases during which anti-apoptotic Bcl-2 protein is expressed.

Sequence of Bcl-2 (P10415 whole entry): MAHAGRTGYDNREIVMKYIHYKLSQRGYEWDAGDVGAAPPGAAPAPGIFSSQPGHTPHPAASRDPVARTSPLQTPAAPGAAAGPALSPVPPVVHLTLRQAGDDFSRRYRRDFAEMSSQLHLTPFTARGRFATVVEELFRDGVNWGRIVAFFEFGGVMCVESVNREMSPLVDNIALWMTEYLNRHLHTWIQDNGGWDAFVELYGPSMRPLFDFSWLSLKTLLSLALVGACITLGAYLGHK

As for `CN(C)CCCNc1sc(S(=O)(=O)NC(=O)c2ccc(N3CCN(CC4=C(c5ccc(Cl)cc5)CC(C)(C)CC4)CC3)cc2Oc2ccc3[nH]ccc3c2)cc1[N+](=O)[O-]` [Example 34, 4-(4-{[2-(4-chlorophenyl)-4,4-dimethylcyclohex-1-en-1-yl]methyl}piperazin-1-yl)-N-[(5-{[3-(dimethylamino)propyl]amino}-4-nitrothien-2-yl)sulfonyl]-2-(1H-indol-5-yloxy)benzamide], the Ki came to 1.79 nM. With `CC(=O)Nc1nc(C)c(S(=O)(=O)NC(=O)c2ccc(N3CCN(Cc4ccccc4-c4ccc(Cl)cc4)CC3)cc2)s1` [Example 11, N-{[2-(acetylamino)-4-methyl-1,3-thiazol-5-yl]sulfonyl}-4-{4-[(4′-chloro-1,1′-biphenyl-2-yl)methyl]piperazin-1-yl}benzamide] the figure was 177 nM. The result for `CN(C)CC[C@H](CSc1ccccc1)Nc1sc(S(=O)(=O)NC(=O)c2ccc(N3CCN(CC=C(c4ccccc4)c4ccccc4)CC3)cc2)cc1[N+](=O)[O-]` [Example 3, N-{[5-({(1R)-3-(dimethylamino)-1-[(phenylthio)methyl]propyl}amino)-4-nitrothien-2-yl]sulfonyl}-4-[4-(3,3-diphenylprop-2-enyl)piperazin-1-yl]benzamide] reads 51.7 nM. Consider `O=C(NS(=O)(=O)c1ccc(-c2ccno2)o1)c1ccc(N2CCN(Cc3ccccc3-c3ccc(Cl)cc3)CC2)cc1` [Example 31, 4-{4-[(4′-chloro-1,1′-biphenyl-2-yl)methyl]piperazin-1-yl}-N-[(5-isoxazol-5-yl-2-furyl)sulfonyl]benzamide], for which the Ki is 139 nM. With `Cc1nc(OC[C@@H]2CN(C(=O)OC(C)(C)C)CCO2)sc1S(=O)(=O)NC(=O)c1ccc(N2CCN(CC3=C(c4ccc(Cl)cc4)CC(C)(C)CC3)CC2)cc1Oc1cnc2[nH]ccc2c1` [Example 43, tert-butyl (2S)-2-{[(5-{[4-(4-{[2-(4-chlorophenyl)-4,4-dimethylcyclohex-1-en-1-yl]methyl}piperazin-1-yl)-2-(1H-pyrrolo[2,3-b]pyridin-5-yloxy)benzoyl]sulfamoyl}-4-methyl-1,3-thiazol-2-yl)oxy]methyl}morpholine-4-carboxylate] the figure was 46.5 nM. With `Cc1nc(OC[C@@H]2CN(C(=O)OC(C)(C)C)CCO2)sc1S(=O)(=O)NC(=O)c1ccc(N2CCN(CC3=C(c4ccc(Cl)cc4)CC(C)(C)CC3)CC2)cc1Oc1cccc2[nH]ncc12` [Example 47, (S)-tert-butyl 2-((5-(N-(2-(1H-indazol-4-yloxy)-4-(4-((2-(4-chlorophenyl)-4,4-dimethylcyclohex-1-enyl)methyl)piperazin-1-yl)benzoyl)sulfamoyl)-4-methylthiazol-2-yloxy)methyl)morpholine-4-carboxylate] the figure was 20.4 nM; with `O=C(NCc1ccc(S(=O)(=O)NC(=O)c2ccc(N3CCN(Cc4ccccc4-c4ccc(Cl)cc4)CC3)cc2)s1)c1ccccc1` [Example 12, N-({5-[(benzoylamino)methyl]thien-2-yl}sulfonyl)-4-{4-[(4′-chloro-1,1′-biphenyl-2-yl)methyl]piperazin-1-yl}benzamide], 393 nM; with `CC(C)N(C)CC[C@H](CSc1ccccc1)Nc1sc(S(=O)(=O)NC(=O)c2ccc(N3CCN(Cc4ccccc4-c4ccc(Cl)cc4)CC3)cc2)cc1[N+](=O)[O-]` [Example 7, 4-{4-[(4′-chloro-1,1′-biphenyl-2-yl)methyl]piperazin-1-yl}-N-{[5-({(1R)-3-[isopropyl(methyl)amino]-1-[(phenylthio)methyl]propyl}amino)-4-nitrothien-2-yl]sulfonyl}benzamide], 0.084 nM. With `CC(=O)/N=c1\sc(S(=O)(=O)NC(=O)c2ccc(N3CCN(Cc4ccccc4-c4ccc(Cl)cc4)CC3)cc2)nn1C` [Example 10, N-{[(5Z)-5-(acetylimino)-4-methyl-4,5-dihydro-1,3,4-thiadiazol-2-yl]sulfonyl}-4-{4-[(4′-chloro-1,1′-biphenyl-2-yl)methyl]piperazin-1-yl}benzamide] the figure was 743 nM. The compound `Cc1nn(C)c(Cl)c1S(=O)(=O)NC(=O)c1ccc(N2CCN(Cc3ccccc3-c3ccc(Cl)cc3)CC2)cc1` [Example 29, 4-{4-[(4′-chloro-1,1′-biphenyl-2-yl)methyl]piperazin-1-yl}-N-[(5-chloro-1,3-dimethyl-1H-pyrazol-4-yl)sulfonyl]benzamide] gave a Ki of 340 nM. With `Cc1nn(CCCl)c(C)c1S(=O)(=O)NC(=O)c1ccc(N2CCN(Cc3ccccc3-c3ccc(Cl)cc3)CC2)cc1` [Example 27, 4-{4-[(4′-chloro-1,1′-biphenyl-2-yl)methyl]piperazin-1-yl}-N-{[1-(2-chloroethyl)-3,5-dimethyl-1H-pyrazol-4-yl]sulfonyl}benzamide] the figure was 434 nM; with `Cc1nc(OCC2(F)CCOCC2)sc1S(=O)(=O)NC(=O)c1ccc(N2CCN(CC3=C(c4ccc(Cl)cc4)CC(C)(C)CC3)CC2)cc1Oc1cccc2[nH]ncc12` [Example 48, 2-(1H-indazol-4-yloxy)-4-(4-((2-(4-chlorophenyl)-4,4-dimethylcyclohex-1-enyl)methyl)piperazin-1-yl)-N-(2-((4-fluorotetrahydro-2H-pyran-4-yl)methoxy)-4-methylthiazol-5-ylsulfonyl)benzamide], 1.64 nM; with `COC1(CC2CCCCC2)CCN(c2ccc(C(=O)NS(=O)(=O)c3cc([N+](=O)[O-])c(N[C@H](CCN(C)C)CSc4ccccc4)s3)cc2)CC1` [Example 1, 4-[4-(cyclohexylmethyl)-4-methoxypiperidin-1-yl]-N-{[5-({(1R)-3-(dimethylamino)-1-[(phenylthio)methyl]propyl}amino)-4-nitrothien-2-yl]sulfonyl}benzamide], 51.4 nM.

In the case of `CC1(C)CCC(CN2CCN(c3ccc(C(=O)NS(=O)(=O)c4cc([N+](=O)[O-])c(NCCCN5CCOCC5)s4)c(Oc4ccc5[nH]ccc5c4)c3)CC2)=C(c2ccc(Cl)cc2)C1` [Example 35, 4-(4-{[2-(4-chlorophenyl)-4,4-dimethylcyclohex-1-en-1-yl]methyl}piperazin-1-yl)-2-(1H-indol-5-yloxy)-N-({5-[(3-morpholin-4-ylpropyl)amino]-4-nitrothien-2-yl}sulfonyl)benzamide], the Ki was found to be 2.07 nM. The result for `Cc1c(S(=O)(=O)NC(=O)c2ccc(N3CCN(Cc4ccccc4-c4ccc(Cl)cc4)CC3)cc2)sc2ccc(F)cc12` [Example 17, 4-{4-[(4′-chloro-1,1′-biphenyl-2-yl)methyl]piperazin-1-yl}-N-[(5-fluoro-3-methyl-1-benzothien-2-yl)sulfonyl]benzamide] reads 356 nM; that for `Cc1cc(C)n2nc(S(=O)(=O)NC(=O)c3ccc(N4CCN(CC5=C(c6ccc(Cl)cc6)CC(C)(C)CC5)CC4)cc3Oc3cccc(Cl)c3)nc2n1` [Example 40, 2-(3-chlorophenoxy)-4-(4-{[2-(4-chlorophenyl)-4,4-dimethylcyclohex-1-en-1-yl]methyl}piperazin-1-yl)-N-[(5,7-dimethyl[1,2,4]triazolo[1,5-a]pyrimidin-2-yl)sulfonyl]benzamide], 0.407 nM.

The compound `O=C(NS(=O)(=O)c1csc(C(F)(F)F)c1-c1ccccc1)c1ccc(N2CCN(Cc3ccccc3-c3ccc(Cl)cc3)CC2)cc1` [Example 16, 4-{4-[(4′-chloro-1,1′-biphenyl-2-yl)methyl]piperazin-1-yl}-N-{[4-phenyl-5-(trifluoromethyl)thien-3-yl]sulfonyl}benzamide] yielded a Ki of 37.9 nM.

The values are drawn from US9156856B2, “Apoptosis-inducing agents for the treatment of cancer and immune and autoimmune diseases” (AbbVie Inc., priority 2009, dated 2015).
